Tests used:
MDS BMMC's = assay: Cell viability following 48 hours treatment (FIGS. 26A/26B; IC50 in MDS BMMC's); format: cell-based
Description: Additionally, an assay has been tested in bone marrow mononuclear cells (BMMCs) from AML and MDS patients to examine MCL-1 dependency prior to therapy with alvocidib. […] Combination studies are currently under investigation to determine whether enhanced anti-cancer activity is observed through pharmacologic downregulation of MCL-1 via CDK9 inhibition by alvocidib and upregulation of the MCL-1 antagonist NOXA after HMA exposure.
FIGS. 26A and 26B are scatter plots showing cell viability following 48 hours treatment at indicated concentrations of azacytidine (alone) or alvocidib (alone). FIG. 26A is a plot of cell viability following 48-hour treatment against indicated concentrations of azacitidine. […] FIG. 26B is a plot of cell viability following 48-hour treatment against indicated concentrations of alvocidib.

[1] = test system: NOXA and MCL-1 expression in CD34+ MDS BMMNC; assay: Pharmacodynamic marker study, Western blot NOXA/MCL-1 in CD34+ MDS BMMNC; format: cell-based, human; conditions: Patient 0219; azacitidine 0.3 or 0.6 μM 24 hours, then alvocidib 0.1 μM 6 hours
Procedure: A pharmacodynamic maker study was performed for azaditidine and alvocidib using MDS patient-derived BMMNC from Cureline. CD34^+ cells were isolated by CD34 MicroBead Kit (Miltenyi Biotec) and cultured in StemSpan™ SFEM II with StemSpan™ CD34^+ Expansion Supplement (STEMCELL Technologies). […] Protein was extracted using RIPA buffer with protease and phosphatase inhibitor cocktail. Protein expression was assessed by Western blot using NOXA (CST, Cat #14766S), MCL-1(CST, Cat #392245) and β-actin (CST, Cat #4967L) antibodies. Apoptotic activity was assessed by Caspase-Glo® 3/7 assay (Promega).

MV-4-11 cells = assay: MCL-1 dependency assay (T-MS1, Dioc6) in MV-4-11 cells; format: cell-based; conditions: for MCL-1 dependency versus DMSO controls: 24 hours
[2] = test system: MDS patient-derived BMMCs (blasts); assay: T-MS1 based MCL-1 dependency assay on MDS patient blasts; format: cell-based, human
Procedure: To determine the patients' cells' dependency on MCL-1 anti-apoptotic protein for survival, the MCL-1 binding protein, MS I with N-terminal modifications for improved cell penetrance was utilized. The modified peptide is referred to as T-MS1. When added to cells, T-MS1 crosses the plasma membrane and antagonizes MCL-I, leading to mitochondrial outer membrane […] (MOMP) formation and subsequently, depolarization of the mitochondria. Mitochondrial potential was assessed using the cationic dye, DiOC2(3), which accumulates in negatively-charged, healthy mitochondria. Fresh or previously frozen MDS bone marrow cells were treated with azacitidine or DMSO control in media containing RPMI+10% FBS+pen/strep for 48 hours prior to being interrogated with T-MS1. After blocking and staining with antibody cocktail to gate on MDS blasts, T-MS1 was added and cells were incubated for 30 minutes at 37° C. After T-MS1 treatment, cells were washed and stained with cationic dye, Dioc6, for 90 minutes to assess mitochondrial depolarization via flow cytometric analysis. Priming % was calculated using the formula: […]
For concordance with prior priming values, an additional calibration factor of 1.6 was applied to patient priming values.
To determine the patients' cells' MCL-1 dependency following treatment with azacitidine, MDS patient-derived BMMCs were treated with DMSO, 0.3 μM azacitidine, 1 μM azacitidine or 2.5 μM azacitidine for 48-72 hours before being assessed by the MCL-1 dependency assay.

CD34+ MDS BMMNC [3] = assay: Caspase-Glo 3/7 apoptotic activity in CD34+ MDS BMMNC (Example 17 efficacy study); format: cell-based, human; conditions: azacitidine 100 nM 24 hours, alvocidib 100 nM 24 hours
Procedure: CD34^+ cells were isolated by CD34 MicroBead Kit (Miltenyi Biotec) and cultured in StemSpan™ SFEM II with StemSpan™ CD34^+ Expansion Supplement (STEMCELL Technologies). […] Apoptotic activity was assessed by Caspase-Glo® 3/7 assay (Promega).

CD34+ MDS BMMNC [4] = assay: Caspase-Glo 3/7 apoptotic activity in CD34+ MDS BMMNC (Example 16); format: cell-based, human; conditions: then DMSO or alvocidib 0.1 μM 6 hours
Procedure: A pharmacodynamic maker study was performed for azaditidine and alvocidib using MDS patient-derived BMMNC from Cureline. CD34^+ cells were isolated by CD34 MicroBead Kit (Miltenyi Biotec) and cultured in StemSpan™ SFEM II with StemSpan™ CD34^+ Expansion Supplement ([…] Technologies). Cells were seeded in 6-well plates and treated with DMSO or azacitidine (0.3 or 0.6 μM) for 24 hours. Following that, DMSO or alvocidib (0.1 μM) was sequentially added, and the cells were incubated for an additional 6 hours. Protein was extracted using RIPA buffer with protease and phosphatase inhibitor cocktail. Protein expression was assessed by Western blot using NOXA (CST, Cat #14766S), MCL-1(CST, Cat #392245) and β-actin (CST, Cat #4967L) antibodies. Apoptotic activity was assessed by Caspase-Glo® 3/7 assay (Promega).

[5] = test system: NOXA expression in MV-4-11 AML cells / MOLM13 cells; assay: Western blot for NOXA expression in AML cell lines treated with HMAs; format: cell-based
Procedure: (§1) In the decitabine experiments (FIGS. 24 and 36), the MV-4-11 AML cell line and MOLM13 cell line model for secondary AML (prior MDS) were used. MV-4-11 AML cells (or MOLM13 cells as indicated) were treated with indicated concentrations of decitabine for indicated times, and protein was assessed by Western blot for NOXA expression. […] FIGS. 24A and 24C are Western blots and FIG. 24B is a bar graph of mRNA concentrations. […] The Western blot was prepared from a MOLM13 xenograft treated with decitabine at 1 mg/kg IP for 24 hours.
In the azacitidine experiments (FIG. 25), MV-4-11 AML cells were treated with indicated concentrations of azacitidine for 24 hours and protein assessed by Western blot for NOXA expression.

MOLM13 xenograft model = assay: MOLM13 xenograft model, tumor volume and survival; format: in vivo; conditions: aggressive daily dosing, tumor bearing mice
Procedure: FIGS. 31A and 31B show results from sequential dosing of alvocidib and HMAs in a MOLM13 model for MDS/sAML. HMA dosing sensitized AML cells to sequential dosing and improved survival in vivo. Alvocidib, azacytidine, and decitabine activity were assessed in the MOLM13 xenograft model. FIG. 31A is a plot of tumor volume over time and FIG. 31B is a plot of percent survival over time. Mice were dosed with alvocidib, qdx2, and/or an HMA, qdx3 on a weekly basis. Doses are indicated in mg/kg (mpk).
[…] show results from aggressive daily dosing of alvocidib and decitabine in the MOLM13 model. Tumor bearing mice were treated. Doses and schedule are indicated. FIG. 32A plots tumor volume following treatment and FIG. 32B plots body weight following treatment.

[6] = test system: NOXA expression in MOLM13 xenograft; assay: Western blot for NOXA from MOLM13 xenograft treated with decitabine; format: in vivo; conditions: decitabine 1 mg/kg IP, 24 hours
Procedure: as §1

Nc1ncn([C@@H]2O[C@H](CO)[C@@H](O)[C@H]2O)c(=O)n1 [azacitidine]
IC50 (MDS BMMC's): ~1000 nM
NOXA and MCL-1 protein expression (Western blot) versus DMSO [1]: induced NOXA expression
MCL-1 dependency versus DMSO controls (MV-4-11 cells): sensitized MV4-11 cells to MCL-1 dependent apoptosis
MCL-1 dependency versus DMSO controls (MV-4-11 cells; listed as azacytidine): increased MCL-1 dependency
MCL-1 dependence (MV-4-11 cells; azacitidine 2.5 μM): 29.6%
priming trend across MDS bone marrow samples ([2]; 0.3, 1 and 2.5 μM azacitidine): dose-dependent increase in priming
percent priming ([2]; Patient 0216's blasts, 1 μM azacitidine): 115.3%
percent priming ([2]; Patient 0216's blasts, 2.5 μM azacitidine): 132.1%
percent priming ([2]; Patient 0515's blasts, 1 μM azacitidine): 82.1%
percent priming ([2]; Patient 0515's blasts, 2.5 μM azacitidine): 81.6%
percent priming ([2]; Patient 1060's blasts, 72-hour, 0.3 μM azacitidine): 45.8%
percent priming ([2]; Patient 1060's blasts, 72-hour, 1 μM azacitidine): 60.9%
maximum increase in priming ([2]; one patient sample): 35%
increase of apoptotic activity versus DMSO (CD34+ MDS BMMNC [3]; Patient 0219): 20%
increase of apoptotic activity versus DMSO (CD34+ MDS BMMNC [3]; Patient 1115 (high-risk MDS)): 35%
increase in apoptotic activity versus DMSO (CD34+ MDS BMMNC [4]; azacitidine 0.3 μM 24 hours): 52%
increase in apoptotic activity versus DMSO (CD34+ MDS BMMNC [4]; azacitidine 0.6 μM 24 hours): 62%
NOXA expression in AML cell line models [5]: increased
NOXA expression (Western blot), azacitidine ([5]; MV-4-11 AML cells, 24 hours): dose-dependent increase

Nc1ncn([C@H]2C[C@H](O)[C@@H](CO)O2)c(=O)n1 [decitabine]
tumor growth inhibition (% TGI) (MOLM13 xenograft model): 58.6%
NOXA expression (Western blot) in xenograft [6]: increase in NOXA expression
NOXA expression in AML cell line models [5]: increased
NOXA expression (Western blot), decitabine ([5]; MV-4-11 AML cells or MOLM13 cells, indicated times): time-dependent increase

— US20240382473A1, “Combination Therapies for Treatment of Myelodysplastic Syndrome” (priority 2019, published 2024)
